Legend:
MIA PaCa-2 = test: Proliferation inhibition of various cancer cells (PrestoBlue), MIA PaCa-2; assay type: cell-based; conditions: Homo sapiens, Pancreatic cancer, 72 hours
Procedure: (§1) The efficacies of compounds 41 and 86 of Formula (I) in inhibiting proliferation of eleven types of cancer cells were determined using PrestoBlue™ Cell Viability Reagent (ThermoFisher Scientific, USA). The eleven types of cancer cells are small cell lung cancer, non-small cell lung cancer, liver cancer, pancreatic cancer, breast cancer, colon cancer, prostate cancer, neuroblastoma, brain cancer, leukemia, and cholangiocarcinoma.
(§2) More specifically, […], i.e., NCI-H82 (ATCC® HTB-175), NCI-H446 (ATCC® HTB-171), NCI-H69 (ATCC® HTB-119), NCI-H146 (ATCC® HTB-173), NCI-H1792 (ATCC® CRL-5895), NCI-H1299 (ATCC® CRL-5803), SNU-398 (ATCC® CRL-2233), PSN-1 (ATCC® CRL-3211), MIA PaCa-2 (ATCC® CRL-1420), MDA-MB-231 (ATCC® HTB-26), LOVO (ATCC® CCL-229), COLO 205 (ATCC® CCL-222), PC-3 (ATCC® CRL-1435), SK-N-BE(2) (ATCC® CRL-2271), D341 Med (ATCC® HTB-187), K562 (ATCC® CCL-243), MOLM-13 (DSMZ-German Collection of Microorganisms and Cell Cultures GmbH, ACC No. 554), and SNU-478 (KCLB 00478), were seeded at a density of 4000-10000 cells per well in 96-well plates for 24 hours. The cancer cells were then treated with each compound at various concentrations (0-10 μM), followed by incubation for another 72 hours. IC50 values were computed based on duplicated 8-point titration.

NCI-H1299 = test: Proliferation inhibition of various cancer cells (PrestoBlue), NCI-H1299; assay type: cell-based; conditions: Homo sapiens, Non-small cell lung cancer, 72 hours
Procedure: as §1, §2

K562 = test: Proliferation inhibition of various cancer cells (PrestoBlue), K562; assay type: cell-based; conditions: Homo sapiens, Leukemia, 72 hours
Procedure: as §1, §2

PSN-1 = test: Proliferation inhibition of various cancer cells (PrestoBlue), PSN-1; assay type: cell-based; conditions: Homo sapiens, PSN1; Pancreatic cancer; 72 hours
Procedure: as §1, §2

NCI-H446 [1] = test: Small-cell-lung cancer cell proliferation inhibition assay (PrestoBlue), NCI-H446; assay type: cell-based; conditions: Homo sapiens, cMYC amplified SCLC cells, 72 hours
Procedure: Small cell lung cancer cells NCI-H82 (ATCC HTB-175, cMYC amplified), NCI-H446 (ATCC® HTB-171, cMYC amplified), and NCI-H69 (ATCC® HTB-119, MYCN amplified) were seeded at the density of 5000-10000 cells per well in 96-well plates. After 24 hours, the cancer cells were treated with each compound at various concentrations (0-10 μM) and then incubated for another 72 hours. IC50 values were computed based on duplicated 8-point titration.

[2] = target: T1, human Aurora A (amino acids 123-401) (Homo sapiens, UniProt O14965); test: Kinase-Glo Luminescent Kinase assay, in vitro inhibition of Aurora A kinase activity; assay type: biochemical; conditions: recombinant GST-tagged Aurora A, 5.0 μM ATP, 37° C., 120 minutes
T1 construct: human Aurora A (amino acids 123-401) was expressed in Sf9 insect cells; GST; made in house; host or cells: Sf9 insect cells
T1 sequence (O14965 123-401): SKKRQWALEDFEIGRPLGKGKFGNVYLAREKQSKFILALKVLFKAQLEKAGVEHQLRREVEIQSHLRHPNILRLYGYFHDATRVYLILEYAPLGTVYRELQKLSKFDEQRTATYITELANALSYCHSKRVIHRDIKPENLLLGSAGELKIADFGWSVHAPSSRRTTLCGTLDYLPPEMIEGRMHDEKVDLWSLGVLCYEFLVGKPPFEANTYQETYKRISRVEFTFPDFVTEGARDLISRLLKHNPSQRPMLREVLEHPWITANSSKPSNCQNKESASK
Outline: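 GST-tagged Aurora A (aa 123-401) expressed in Sf9 cells, incubated with compound at 100 nM, 5.0 μM ATP and 15 μM tetra(-LRRASLG) peptide in Tris-HCl pH 7.4 with MgCl2, BSA and DTT, 120 min at 37° C. Remaining ATP read by Kinase-Glo Plus luminescence after 20 min at 25° C.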

NCI-H82 = test: Proliferation inhibition of various cancer cells (PrestoBlue), NCI-H82; assay type: cell-based; conditions: Homo sapiens, Small cell lung cancer, 72 hours
Procedure: as §1, §2

PC-3 = test: Proliferation inhibition of various cancer cells (PrestoBlue), PC-3; assay type: cell-based; conditions: Homo sapiens, Prostate cancer, 72 hours
Procedure: as §1, §2

SK-N-BE(2) = test: Proliferation inhibition of various cancer cells (PrestoBlue), SK-N-BE(2); assay type: cell-based; conditions: Homo sapiens, SKNBE2; Neuroblastoma; 72 hours
Procedure: as §1, §2

NCI-H446 [3] = test: Proliferation inhibition of various cancer cells (PrestoBlue), NCI-H446; assay type: cell-based; conditions: Homo sapiens, Small cell lung cancer, 72 hours
Procedure: as §1, §2

D341 Med = test: Proliferation inhibition of various cancer cells (PrestoBlue), D341 Med; assay type: cell-based; conditions: Brain cancer, 72 hours
Procedure: as §1, §2

IC50 (MIA PaCa-2) [µM]	IC50 (NCI-H1299) [µM]	IC50 (K562) [µM]	IC50 (PSN-1) [µM]	IC50 (NCI-H446 [1]) [µM]	IC50 [2] [µM]	IC50 (NCI-H82) [µM]	IC50 (PC-3) [µM]	IC50 (SK-N-BE(2)) [µM]	IC50 (NCI-H446 [3]) [µM]	IC50 (D341 Med) [µM]	Structure (SMILES)
< 1	< 1	< 1	< 2	< 1	< 0.1	< 0.2	< 10	< 0.2	< 0.2	< 0.2	CCN1CCN(c2cc(Nc3cc(C)[nH]n3)nc(N[C@H]3CCN(C(=O)c4ccc(Cl)cc4F)C3)n2)CC1 [Compound 41]
< 1	< 1	< 1	< 2	< 1	< 0.1	< 0.3	< 10	< 0.2	< 0.2	< 0.3	CCN1CCN(c2cc(Nc3cc(C)[nH]n3)nc(NC3CCN(C(=O)c4cccc(Cl)c4F)CC3)n2)CC1 [Compound 86]
